This experiment has as its target T1, KRAS G12C 1-169, his-tagged protein, GDP-loaded (Homo sapiens, UniProt P01116, G12C).
T1 construct: KRAS G12C 1-169, his-tagged protein, GDP-loaded; His tag
The experiment can be described thus: Biochemical assay: covalent binding to KRAS G12C measured by mass spectrometry (RapidFire/TOF or Q-Exactive). The conditions noted are these: covalent binding to KRAS G12C after a thirty minute incubation period. How it is done: Test compounds were prepared as 10 mM stock solutions in DMSO (Fisher cat #BP-231-100). KRAS G12C 1-169, his-tagged protein, GDP-loaded was diluted to 0.5 μM in buffer (20 mM Hepes, 150 mM NaCl, 1 mM MgCl2). Compounds were tested for activity as follows:
Compounds were diluted to 50× final test concentration in DMSO in 96-well storage plates. Compound stock solutions were vortexed before use and observed carefully for any sign of precipitation. Dilutions were as follow: • For 100 μM final compound concentration, compounds were diluted to 5000 μM (5 μL 10 mM compound stock+5 μL DMSO and mixed well by pipetting. • For 30 μM final compound concentration, compounds were diluted to 1500 μM (3 μL 10 mM compound stock+17 μL DMSO) and mixed well by pipetting. • For 10 μM final compound concentration, compounds were diluted to 500 μM (2 μL 10 mM compound stock+38 μL DMSO) and mixed well by pipetting. 49 μL of the stock protein solution was added to each well of a 96-well PCR plate (Fisher cat #1423027). 1 μl of the diluted 50× compounds were added to appropriate wells in the PCR plate using 12-channel pipettor. Reactions were mixed carefully and thoroughly by pipetting up/down with a 200 μL multi-channel pipettor. The plate was sealed well with aluminum plate seal, and stored in drawer at room temperature for 10 minutes, 30 minutes, 2 hours or 24 hours. 5 μL of 2% formic acid (Fisher cat #A117) in de-ionized H2O was then added to each well followed by mixing with a pipette. The plate was then resealed with aluminum seal and stored on dry ice until analyzed as described below.
The above described assays were analyzed by mass spectrometry according to one of the following two procedures:
The MS instrument is set to positive polarity, 2 GHz resolution, and low mass (1700) mode and allowed to equilibrate for 30 minutes. The instrument is then calibrated, switched to acquisition mode and the appropriate method loaded.
After another 30 minute equilibration time, a blank batch (i.e., buffer) is run to ensure equipment is operating properly. The samples are thawed at 37° C. for 10 minutes, briefly centrifuged, and transfer to the bench top. Wells A1 and H12 are spiked with 1 μL 500 μM internal standard peptide, and the plates centrifuged at 2000×g for 5 minutes. The method is then run and masses of each individual well recorded.
The masses (for which integration data is desired) for each well are pasted into the platemap and exported from the analysis. Masses for the internal standards are exported as well. The data at 50 ppm is extracted for the +19 charge state, and identity of well A1 is assigned using the internal standard spike and integrated. Peak data is exported as a TOF list and the above steps are repeated individually, for the +20, 21, 22, 23, 24, and 25 charge states.
The masses and peak intensities of KRAS G12C protein species were measured using a Dionex RSLCnano system (Thermo Scientific) connected to a Q Exactive Plus mass spectrometer (Thermo Scientific).
[…] of sample was each loaded onto a Aeris™ 3.6 μm WIDEPORE C4 200 Å, LC Column 50×2.1 mm column maintained at 40° C. at a flow rate of 600 μL/min with 20% Solvent A (0.1% formic acid in H2O) and 80% Solvent B (0.1% formic acid in acetonitrile). The liquid chromatography conditions were 20% solvent B for 1 minute, 20% to 60% solvent B for 1.5 minutes, 60% to 90% solvent for 0.5 minute, 90% solvent B for 0.2 minute, 90% to 20% solvent B for 0.2 minute, and then equilibrated for 1.6 minute before the following sample injection. The flow rate was maintained at 600 μL/min throughout the sample analysis.
The mass spectrometer was operated in profile mode at a resolution of 17500, 5 microscans, using 50 msec max injection time and an AGC target of 1×10^6, and a full mass range from 800-1850 m/z was recorded. The HCD trapping gas was optimized for maximum sensitivity for intact proteins. […]
For `C=CC(=O)N1CC(c2nc3ccc(-c4cc(O)cc5ccccc45)cc3c(=O)[nH]2)C1` [Compound 1, 2-(1-acryloylazetidin-3-yl)-6-(3-hydroxynaphthalen-1-yl)quinazolin-4(3H)-one], the Binding % result is reported as “++ (++ indicates binding activity from 10 to 50%)”.
For the compound `C=CC(=O)N1CC(c2nc3ccc(-c4cccc5[nH]nc(I)c45)cc3c(=O)n2CCCN(C)C)C1` [Compound 6, 2-(1-acryloylazetidin-3-yl)-3-(3-(dimeth-ylamino)propyl)-6-(3-iodo-1H-indazol-4-yl)quinazolin-4(3H)-one], the Binding % result is “+ (+ indicates binding activity up to 10%)”.
Consider `C=CC(=O)N1CC(Cc2nc3ccc(-c4cc(O)cc5ccccc45)cc3c(=O)n2CCCN(C)C)C1` [Compound 27, 2-((1-acryloylazetidin-3-yl)methyl)-3-(3-(dimethylamino)propyl)-6-(3-hydroxynaphthalen-1-yl)quinazolin-4(3H)-one], for which the Binding % entry is “+ (+ indicates binding activity up to 10%)”.
With `C=CC(=O)N1CC(c2nc(NCCc3ncccn3)c3cc(-c4c(C)ccc5[nH]ncc45)ccc3n2)C1` [Compound 33, 1-(3-(6-(5-methyl-1H-indazol-4-yl)-4-((2-(pyrimidin-2-yl)ethyl)amino)quin-azolin-2-yl)azetidin-1-yl)prop-2-en-1-one] the entry was “+ (+ indicates binding activity up to 10%)”; with `C=CC(=O)N1CC(c2nc(-n3ccnc3)c3cc(-c4cc(O)cc5ccccc45)ccc3n2)C1` [Compound 30, 1-(3-(6-(3-hydroxynaphthalen-1-yl)-4-(1H-imidazol-1-yl)quinazolin-2-yl)azetidin-1-yl)prop-2-en-1-one], “+ (+ indicates binding activity up to 10%)”.
In the case of `C=CC(=O)N1CC(c2nc(NCC(=O)N3CC(N(C)C)C3)c3cc(-c4cc(O)cc5ccccc45)ccc3n2)C1` [Compound 21, 1-(3-(4-((2-(3-(dimethylamino)azetidin-1-yl)-2-oxoethyl)amino)-6-(3-hydroxynaphthalen-1-yl)quinazolin-2-yl)azetidin-1-yl)prop-2-en-1-one] it was “+ (+ indicates binding activity up to 10%)”.
With `C=CC(=O)N1CC(c2nc3ccc(-c4c(C)ccc5[nH]ncc45)cc3c(=O)n2CCCN(C)C)C1` [Compound 5, 2-(1-acryloylazetidin-3-yl)-3-(3-(dimethylamino)propyl)-6-(5-methyl-1H-indazol-4-yl)quinazolin-4(3H)-one] the entry was “++ (++ indicates binding activity from 10 to 50%)”.
As to `C=CC(=O)N1CC(c2nc3ccc(-c4cccc5[nH]nc(C)c45)cc3c(=O)n2CCCN(C)C)C1` [Compound 7, 2-(1-acryloylazetidin-3-yl)-3-(3-(dimeth-ylamino)propyl)-6-(3-methyl-1H-indazol-4-yl)quinazolin-4(3H)-one], the Binding % entry is reported as “+ (+ indicates binding activity up to 10%)”.
In the case of `C=CC(=O)N1CC(c2nc3ccc(-c4cc(O)cc5ccccc45)cc3c(=O)n2CCCN(C)C)C1` [Compound 4, 2-(1-acryloylazetidin-3-yl)-3-(3-(dimethylamino)propyl)-6-(3-hydroxynaphthalen-1-yl)quinazolin-4(3H)-one] it was “+++ (+++ indicates binding activity greater than 50%)”; in that of `C=CC(=O)N1CC(c2nc3ccc(-c4cc(O)cc5ccccc45)cc3c(=O)n2C)C1` [Compound 2, 2-(1-acryloylazetidin-3-yl)-6-(3-hydroxynaphthalen-1-yl)-3-methylquinazolin-4(3H)-one], “+++ (+++ indicates binding activity greater than 50%)”.
On to `C=CC(=O)N1CC(c2nc3ccc(-c4c(C)ccc5[nH]ncc45)cc3c(=O)n2C)C1` [Compound 3, 2-(1-acryloylazetidin-3-yl)-3-methyl-6-(5-methyl-1H-indazol-4-yl)quinazolin-4(3H)-one], for which the Binding % result was “++ (++ indicates binding activity from 10 to 50%)”.
Regarding `C=CC(=O)N1CC(c2nc(N3CC(N(C)C)C3)c3cc(-c4c(C)ccc5[nH]ncc45)ccc3n2)C1` [Compound 32, 1-(3-(4-(3-(dimethylamino)aze-tidin-1-yl)-6-(5-methyl-1H-indazol-4-yl)quinazolin-2-yl)azetidin-1-yl)prop-2-en-1-one], the Binding % entry is listed as “+ (+ indicates binding activity up to 10%)”.
As to `C=CC(=O)N1CC(c2nc(N3CCC(O)C3)c3cc(-c4cc(O)cc5ccccc45)ccc3n2)C1` (centres unmarked) [Compound 34, 1-(3-(6-(3-hydroxynaphthalen-1-yl)-4-(3-hydroxypyrrolidin-1-yl)quinazolin-2-yl)azetidin-1-yl)prop-2-en-1-one], the Binding % result is listed as “+ (+ indicates binding activity up to 10%)”.
As to `C=CC(=O)N1CC(c2nc(NC3CCN(C4CC4)CC3)c3cc(-c4c(C)ccc5[nH]ncc45)ccc3n2)C1` [Compound 31, 1-(3-(4-((1-cyclopropylpiperi-din-4-yl)amino)-6-(5-methyl-1H-indazol-4-yl)quinazolin-2-yl)azetidin-1-yl)prop-2-en-1-one], the Binding % result is recorded as “+ (+ indicates binding activity up to 10%)”.

These data come from patent US11136308B2, “Substituted quinazoline and quinazolinone compounds and methods of use thereof” (Araxes Pharma LLC, priority 2017, dated 2021).
